Source: ChEMBL document CHEMBL1201862, “PubChem BioAssay data set” (2004)
The source made the active and inactive calls.

Experiments:
[1] = biological target: Polyadenylate-binding protein 1 (Homo sapiens, UniProt P11940); test: PABP inhibition in translation initiation, SAR follow-up (AID 435018); assay type: functional
[2] = biological target: Eukaryotic translation initiation factor 4H (Homo sapiens, UniProt Q15056); test: eIF4H inhibition in translation initiation, SAR follow-up (AID 435011); assay type: functional
[3] = biological target: T1, Corticotropin-releasing factor receptor 2/Corticotropin-releasing factor-binding protein (Homo sapiens, UniProt P24387+Q13324); test: activators of CRF receptor 2 with binding protein – uHTS hits, confirmation (AID 602473); assay type: functional; conditions: read-out: EC50_Mean
T1 sequence (Q13324 whole entry): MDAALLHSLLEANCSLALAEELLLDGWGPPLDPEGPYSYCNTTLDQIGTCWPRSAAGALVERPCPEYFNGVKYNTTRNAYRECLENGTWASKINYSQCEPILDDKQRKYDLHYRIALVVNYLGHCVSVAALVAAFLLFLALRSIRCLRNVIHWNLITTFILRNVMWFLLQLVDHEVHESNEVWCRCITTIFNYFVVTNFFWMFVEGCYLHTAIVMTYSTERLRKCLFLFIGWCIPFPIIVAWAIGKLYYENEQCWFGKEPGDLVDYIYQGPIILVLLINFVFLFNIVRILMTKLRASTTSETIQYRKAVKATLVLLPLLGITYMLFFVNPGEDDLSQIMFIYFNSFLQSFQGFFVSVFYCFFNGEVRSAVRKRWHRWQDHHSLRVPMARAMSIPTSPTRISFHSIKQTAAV
T1 sequence (P24387 whole entry): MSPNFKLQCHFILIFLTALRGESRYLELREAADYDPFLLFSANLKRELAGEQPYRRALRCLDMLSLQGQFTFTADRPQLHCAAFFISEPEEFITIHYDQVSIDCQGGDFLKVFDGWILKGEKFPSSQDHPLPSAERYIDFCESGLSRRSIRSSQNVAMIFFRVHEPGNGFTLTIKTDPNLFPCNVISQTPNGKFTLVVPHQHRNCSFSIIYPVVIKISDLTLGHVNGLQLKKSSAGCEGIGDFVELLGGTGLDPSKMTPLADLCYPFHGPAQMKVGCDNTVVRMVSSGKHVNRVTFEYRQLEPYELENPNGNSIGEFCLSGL

[4] = biological target: Intestinal-type alkaline phosphatase (Homo sapiens, UniProt P09923); test: Dose Response confirmation of uHTS hits from a small molecule inhibitors of human intestinal alkaline phosphatase via a luminescent assay. [Related pubchem assays (depositor defined):AID2544, AID2574]; assay type: functional
[5] = biological target: T1, Corticotropin-releasing factor receptor 2/Corticotropin-releasing factor-binding protein; test: Dose Response confirmation of uHTS hits for small molecule antagonists of the CRF-binding protein and CRF-R2 receptor complex.; assay type: functional; conditions: read-out: IC50_Mean
[6] = viability loss in HRASV12 DRD fibroblasts, dose response, cell-based, DRD BJ fibroblasts, dry powder (AID 493049); assay type: functional
[7] = cytotoxicity in BJeH fibroblasts, dose response, counter-screen for Ras selective lethality project, BJeH cells, dry powder (AID 493054); assay type: functional, cell-based
[8] = viability loss in BJeLR (HRASV12) cells, primary screen, Ras selective lethality project, cell-based, Alamar Blue, dry powder (AID 493045); assay type: functional
[9] = cytotoxicity in BJeHLT fibroblasts, dose response, counter-screen for Ras selective lethality project, BJeHLT cells, dry powder (AID 493052); assay type: functional, cell-based; conditions: Homo sapiens
[10] = inhibition of K1F phage lysis, E. coli UTI89, bacterial capsule biogenesis inhibitors, alamar blue (AID 488966); assay type: functional
[11] = Luminescence Cell-Based Dose Confirmation HTS to Identify Inhibitors of Platelet Dense Granule Release. [Related pubchem assays: 1663 (Primary HTS), 1678 (Summary of Project)]; assay type: functional
Saccharomyces cerevisiae = test: NALP1 inhibitor project selectivity study, Caspase-1/ASC signal blockade IC50 in S. cerevisiae (AID 488863); assay type: functional, organism-based
[12] = biological target: T2, Neuropeptide Y receptor type 1 (Homo sapiens, UniProt P25929); assay type: functional;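 also: HEK293 cells with a CNG channel challenged with NPY then isoproterenol; potency as antagonist that reverses NPY suppression of cAMP signal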
T2 sequence (P25929 whole entry): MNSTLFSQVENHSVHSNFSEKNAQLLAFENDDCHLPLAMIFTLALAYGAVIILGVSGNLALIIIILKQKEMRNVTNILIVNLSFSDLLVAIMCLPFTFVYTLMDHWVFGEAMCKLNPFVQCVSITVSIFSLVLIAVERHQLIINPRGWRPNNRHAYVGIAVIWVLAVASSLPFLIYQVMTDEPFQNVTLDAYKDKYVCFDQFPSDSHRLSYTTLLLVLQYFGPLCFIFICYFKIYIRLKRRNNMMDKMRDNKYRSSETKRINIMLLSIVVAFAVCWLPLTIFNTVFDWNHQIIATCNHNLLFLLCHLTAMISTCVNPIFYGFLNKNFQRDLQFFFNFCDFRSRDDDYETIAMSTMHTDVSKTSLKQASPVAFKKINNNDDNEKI

[13] = biological target: NACHT, LRR and PYD domains-containing protein 1 (Homo sapiens, UniProt Q9C000); test: NALP1 inhibitors in yeast, dose response, luminescent (AID 488860); assay type: functional
[14] = biological target: Luciferin 4-monooxygenase (Photinus pyralis, UniProt P08659); test: firefly luciferase enzyme inhibitors, dose response, biochemical, luminescence (AID 1891)
[15] = biological target: T3, Neuropeptide Y receptor type 2 (Homo sapiens, UniProt P49146); assay type: functional, cell-based;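 also: HEK293 cells expressing the receptor and a CNG channel; stimulus was NPY near EC95 followed by isoproterenol to raise cAMP; antagonist potency measured as restoring cAMP signal that NPY suppresses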
T3 sequence (P49146 whole entry): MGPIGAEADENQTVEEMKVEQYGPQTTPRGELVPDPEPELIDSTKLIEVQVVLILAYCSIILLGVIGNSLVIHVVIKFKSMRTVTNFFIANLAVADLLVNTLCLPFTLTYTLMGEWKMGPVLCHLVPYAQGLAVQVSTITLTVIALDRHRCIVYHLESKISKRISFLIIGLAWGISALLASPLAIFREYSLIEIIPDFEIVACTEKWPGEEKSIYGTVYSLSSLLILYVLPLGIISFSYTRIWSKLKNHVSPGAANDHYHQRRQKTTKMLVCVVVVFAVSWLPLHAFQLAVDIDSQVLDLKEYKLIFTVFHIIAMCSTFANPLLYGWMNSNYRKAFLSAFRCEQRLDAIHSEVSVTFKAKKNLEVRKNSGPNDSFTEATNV

Sequence of Luciferin 4-monooxygenase (P08659 whole entry): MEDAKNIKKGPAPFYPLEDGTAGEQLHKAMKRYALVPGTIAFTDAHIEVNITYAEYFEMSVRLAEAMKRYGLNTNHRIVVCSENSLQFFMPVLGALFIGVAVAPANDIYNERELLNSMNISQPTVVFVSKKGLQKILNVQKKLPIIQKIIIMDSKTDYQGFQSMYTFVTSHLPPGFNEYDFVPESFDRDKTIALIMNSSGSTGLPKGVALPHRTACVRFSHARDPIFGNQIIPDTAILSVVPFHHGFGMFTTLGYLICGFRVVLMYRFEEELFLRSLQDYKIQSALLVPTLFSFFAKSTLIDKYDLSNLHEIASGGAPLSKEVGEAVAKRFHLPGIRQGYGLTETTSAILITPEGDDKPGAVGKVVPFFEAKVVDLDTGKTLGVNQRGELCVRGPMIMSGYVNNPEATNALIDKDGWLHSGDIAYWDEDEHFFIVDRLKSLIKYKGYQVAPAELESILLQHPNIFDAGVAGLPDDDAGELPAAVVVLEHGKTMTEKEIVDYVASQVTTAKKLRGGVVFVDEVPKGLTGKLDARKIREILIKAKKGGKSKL
Sequence of NACHT, LRR and PYD domains-containing protein 1 (Q9C000 1-1212 limits assumed): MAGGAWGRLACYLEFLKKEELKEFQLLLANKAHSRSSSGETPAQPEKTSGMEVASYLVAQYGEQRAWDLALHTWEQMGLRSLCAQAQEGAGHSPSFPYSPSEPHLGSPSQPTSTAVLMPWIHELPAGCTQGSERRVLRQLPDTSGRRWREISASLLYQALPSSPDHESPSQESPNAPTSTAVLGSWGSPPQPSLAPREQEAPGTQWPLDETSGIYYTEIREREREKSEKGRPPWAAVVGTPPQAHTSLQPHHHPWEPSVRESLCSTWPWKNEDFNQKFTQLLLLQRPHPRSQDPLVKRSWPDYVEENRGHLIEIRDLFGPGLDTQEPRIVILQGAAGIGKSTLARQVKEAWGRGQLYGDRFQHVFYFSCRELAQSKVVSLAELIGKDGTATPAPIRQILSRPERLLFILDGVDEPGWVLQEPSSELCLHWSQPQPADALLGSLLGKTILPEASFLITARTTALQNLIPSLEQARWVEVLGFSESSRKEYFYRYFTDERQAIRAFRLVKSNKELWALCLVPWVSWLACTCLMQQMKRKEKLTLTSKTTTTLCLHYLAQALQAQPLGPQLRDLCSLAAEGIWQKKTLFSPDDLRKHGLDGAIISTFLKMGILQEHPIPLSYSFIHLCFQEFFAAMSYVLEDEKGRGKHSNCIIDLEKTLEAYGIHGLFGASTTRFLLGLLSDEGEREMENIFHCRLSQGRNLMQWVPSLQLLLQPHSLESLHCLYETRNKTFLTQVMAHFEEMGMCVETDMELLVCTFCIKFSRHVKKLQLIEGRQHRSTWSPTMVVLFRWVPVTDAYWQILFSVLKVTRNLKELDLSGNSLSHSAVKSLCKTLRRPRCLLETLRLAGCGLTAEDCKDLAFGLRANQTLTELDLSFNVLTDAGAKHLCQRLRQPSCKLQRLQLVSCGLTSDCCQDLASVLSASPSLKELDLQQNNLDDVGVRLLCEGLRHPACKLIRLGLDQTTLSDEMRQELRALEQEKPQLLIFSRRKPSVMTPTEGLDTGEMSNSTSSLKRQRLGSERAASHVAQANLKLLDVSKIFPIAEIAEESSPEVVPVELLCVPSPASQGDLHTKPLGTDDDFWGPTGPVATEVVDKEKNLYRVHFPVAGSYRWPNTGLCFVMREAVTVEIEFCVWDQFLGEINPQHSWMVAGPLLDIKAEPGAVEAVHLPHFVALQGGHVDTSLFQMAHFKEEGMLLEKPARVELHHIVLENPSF
Sequence of NACHT, LRR and PYD domains-containing protein 1 (Q9C000 1213-1473 limits assumed): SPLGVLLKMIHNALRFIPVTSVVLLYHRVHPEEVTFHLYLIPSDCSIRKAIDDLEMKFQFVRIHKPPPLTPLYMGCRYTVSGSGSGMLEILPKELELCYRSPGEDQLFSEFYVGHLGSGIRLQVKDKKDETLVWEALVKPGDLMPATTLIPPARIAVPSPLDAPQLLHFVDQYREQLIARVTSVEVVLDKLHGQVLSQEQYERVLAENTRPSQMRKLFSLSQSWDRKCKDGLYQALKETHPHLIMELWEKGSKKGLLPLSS
Sequence of Polyadenylate-binding protein 1 (P11940 whole entry): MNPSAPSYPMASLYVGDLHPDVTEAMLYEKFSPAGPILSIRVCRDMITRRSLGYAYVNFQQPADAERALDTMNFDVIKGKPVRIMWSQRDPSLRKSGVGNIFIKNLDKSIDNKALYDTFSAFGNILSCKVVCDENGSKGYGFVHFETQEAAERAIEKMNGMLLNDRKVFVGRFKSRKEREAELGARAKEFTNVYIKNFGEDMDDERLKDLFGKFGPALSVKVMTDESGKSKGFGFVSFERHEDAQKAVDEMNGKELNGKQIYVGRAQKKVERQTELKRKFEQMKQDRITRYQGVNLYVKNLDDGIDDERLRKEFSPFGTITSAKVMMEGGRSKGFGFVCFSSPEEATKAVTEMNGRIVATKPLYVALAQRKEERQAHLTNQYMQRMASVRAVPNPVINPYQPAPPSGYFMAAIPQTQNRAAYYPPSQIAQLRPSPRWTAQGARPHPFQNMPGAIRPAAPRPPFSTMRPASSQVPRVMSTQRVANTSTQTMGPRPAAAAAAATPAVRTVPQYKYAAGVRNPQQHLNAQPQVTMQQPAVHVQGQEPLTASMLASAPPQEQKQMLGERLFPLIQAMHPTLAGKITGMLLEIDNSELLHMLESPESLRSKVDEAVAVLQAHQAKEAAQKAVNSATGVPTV
Sequence of Intestinal-type alkaline phosphatase (P09923 whole entry): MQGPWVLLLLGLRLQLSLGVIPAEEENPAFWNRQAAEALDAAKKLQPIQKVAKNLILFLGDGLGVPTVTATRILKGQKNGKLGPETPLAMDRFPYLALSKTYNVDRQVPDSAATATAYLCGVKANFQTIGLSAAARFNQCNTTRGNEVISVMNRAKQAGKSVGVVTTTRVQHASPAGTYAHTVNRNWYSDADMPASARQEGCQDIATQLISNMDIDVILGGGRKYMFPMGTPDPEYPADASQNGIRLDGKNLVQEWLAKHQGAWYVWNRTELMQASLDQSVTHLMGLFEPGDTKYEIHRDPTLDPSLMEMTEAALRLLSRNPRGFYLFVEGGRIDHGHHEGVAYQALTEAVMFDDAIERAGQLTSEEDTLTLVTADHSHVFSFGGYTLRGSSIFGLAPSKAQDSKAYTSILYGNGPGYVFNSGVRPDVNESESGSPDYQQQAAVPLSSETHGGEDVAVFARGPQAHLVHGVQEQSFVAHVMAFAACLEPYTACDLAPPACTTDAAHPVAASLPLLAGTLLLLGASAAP

For COc1ccccc1N=C1SC(C(=O)Nc2ccc(F)cc2)CC(=O)N1C (stereo unspecified), the IC50 [1] was > 100 µM (inactive) and the IC50 [2] was > 100 µM (inactive).

For Cc1ccccc1CNC(=O)c1ccccc1N, the EC50 [3] was > 53 µM (inactive), the IC50 [4] was > 100 µM (inactive) and the IC50 [5] was > 47.1 µM (inactive).

With COc1ccc(N(C(=O)CCl)C(C(=O)NCc2ccccc2)c2cccs2)cc1Cl (stereo unspecified) the AC50 [6] was 0.098 µM (active), the AC50 [7] was 0.336 µM (active) and the AC50 [8] was 0.075 µM (active). The AC50 [9] was 0.179 µM (active).

In the case of CC/C(=C(/c1ccccc1)c1ccc(OCC[N+](C)(C)C)cc1)c1ccccc1, the IC50 [10] was > 150 µM (active).

For COc1cc(/C=N/n2cnnc2)ccc1OCc1ccc(C)cc1, the EC50 [11] was 20.8 µM (active), the IC50 (Saccharomyces cerevisiae) was > 100 µM (inactive) and the IC50 [12] was 7.08 µM (active). For the same molecule, the IC50 [13] was > 100 µM (inactive), the EC50 [14] was > 112 µM (not active) and the IC50 [15] was 4.18 µM (active).
